Patent US20240067693A1, “POLYPEPTIDES AND USES THEREOF” (MEDIMMUNE LIMITED, priority 2020, published 2024)
Numbered stars: 1 amine (or outer) side, 2 acyl side, 3 side chain; on linkers, the order of the positions; unused ones are H or OH. Bridge positions count the residues as written; N and C are the ends. Square brackets hold non-standard residues; d marks the D form. Side chains are listed from the residue outwards. Peptide text beside a SMILES is read from it. * marks the point of attachment. C18 diacid = O=C(O)CCCCCCCCCCCCCCCCC(=O)*; γGlu = O=C(O)[C@H](CCC(=O)[*:2])N[*:1]; αMeF = C[C@](N)(Cc1ccccc1)C(=O)O

Legend:
[1] = target: T1, human amylin receptor (calcitonin receptor co-expressed with receptor activity modifying protein, RAMP3) (hAMYR3) (Homo sapiens, UniProt O60896+P30988); assay: cAMP production in 1321N1 cells with stable recombinant expression of human amylin receptor (hAMYR3); assay type: cell-based
T1 construct: expressed in transfected cells
T1 sequence (P30988 25-474): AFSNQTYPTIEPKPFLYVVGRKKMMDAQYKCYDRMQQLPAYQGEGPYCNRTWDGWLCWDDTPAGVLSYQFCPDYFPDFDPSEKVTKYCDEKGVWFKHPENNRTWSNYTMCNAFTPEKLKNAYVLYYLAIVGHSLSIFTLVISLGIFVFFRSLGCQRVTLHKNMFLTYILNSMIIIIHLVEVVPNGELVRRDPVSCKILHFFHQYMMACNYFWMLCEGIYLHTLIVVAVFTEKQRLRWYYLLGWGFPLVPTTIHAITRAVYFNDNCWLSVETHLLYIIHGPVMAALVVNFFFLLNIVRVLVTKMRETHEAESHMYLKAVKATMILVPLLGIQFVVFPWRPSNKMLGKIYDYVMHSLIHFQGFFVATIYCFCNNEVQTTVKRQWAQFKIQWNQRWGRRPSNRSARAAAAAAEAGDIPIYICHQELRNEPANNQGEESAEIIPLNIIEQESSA
T1 sequence (O60896 24-148 partner): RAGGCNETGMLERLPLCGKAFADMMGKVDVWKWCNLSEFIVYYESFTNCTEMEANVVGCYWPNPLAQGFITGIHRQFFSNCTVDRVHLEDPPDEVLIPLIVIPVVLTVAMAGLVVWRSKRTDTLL
Summary of the method: (§1)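 Thawed cells in HBSS/0.1% BSA/25 mM HEPES pH 7.4 with 0.5 mM IBMX were incubated with peptides 30 min at room temperature; cAMP read by HTRF. EC50 from 4-parameter fit of % activation relative to maximal amylin or calcitonin effect.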

lean rats = assay: Rat acute food intake study; assay type: in vivo; conditions: lean male Sprague Dawley rats, 20 nmol/kg subcutaneously
Summary of the method: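 Male Sprague Dawley rats (n=7/group), fasted 6 h, received 20 nmol/kg test compound or 60 nmol/kg pramlintide subcutaneously 30 min before food return at dark onset. Food intake recorded automatically in home cages over 3 days, binned hourly and analysed as cumulative dark-period intake; body weight taken daily.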

[2] = Pharmacokinetic determination via IV and SC administration in Sprague Dawley rats; conditions: male, rat, plasma, 20 nmol/kg
[3] = target: T2, rat calcitonin receptor (rat CTR) (Rattus norvegicus, UniProt P32214); assay: cAMP production in HEK cells with stable recombinant expression of rat calcitonin receptor (rat CTR); assay type: cell-based; conditions: assay buffer with 0.1% BSA
T2 construct: expressed in transfected cells
T2 sequence (P32214 25-516): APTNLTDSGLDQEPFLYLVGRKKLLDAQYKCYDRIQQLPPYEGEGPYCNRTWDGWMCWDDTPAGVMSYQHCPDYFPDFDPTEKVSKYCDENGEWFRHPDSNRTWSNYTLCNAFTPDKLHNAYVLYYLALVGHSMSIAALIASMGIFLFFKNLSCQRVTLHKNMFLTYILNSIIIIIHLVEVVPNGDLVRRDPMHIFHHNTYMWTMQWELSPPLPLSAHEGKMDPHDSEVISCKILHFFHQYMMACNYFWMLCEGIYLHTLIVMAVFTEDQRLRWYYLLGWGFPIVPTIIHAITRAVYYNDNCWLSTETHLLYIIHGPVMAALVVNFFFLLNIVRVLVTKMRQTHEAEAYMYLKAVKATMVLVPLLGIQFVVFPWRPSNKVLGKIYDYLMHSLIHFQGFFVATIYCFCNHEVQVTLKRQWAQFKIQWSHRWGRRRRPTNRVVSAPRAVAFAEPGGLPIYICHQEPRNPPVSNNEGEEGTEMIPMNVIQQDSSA
Summary of the method: as §1

Ratio (selectivity hAMYR vs hCTR, ratio of EC50 values at the two receptors) ([1]; EC50 hCTR / EC50 hAMYR3): 10
EC50 ([1]; cAMP, 1321N1 cells, assay buffer with 0.1% BSA, read-out: EC50 (pM) hAMYR3): 522 pM
half-life ([2]; iv): 10.4 h
half-life ([2]; sc): 11.5 h
EC50 [3]: 1820 pM
Structure (SMILES): CC[C@H](C)[C@H](NC(=O)[C@@H]1CCCN1C(=O)CNC(=O)[C@](C)(Cc1ccccc1)NC(=O)[C@H](CC(N)=O)NC(=O)[C@H](CC(N)=O)NC(=O)[C@H](CO)NC(=O)[C@H](CO)NC(=O)[C@H](Cc1c[nH]cn1)NC(=O)[C@H](CCCNC(=N)N)NC(=O)[C@H](CC(C)C)NC(=O)[C@H](Cc1ccccc1)NC(=O)[C@H](CC(N)=O)NC(=O)[C@H](C)NC(=O)[C@H](CC(C)C)NC(=O)[C@H](CCCNC(=N)N)NC(=O)[C@H](CCC(N)=O)NC(=O)[C@@H](NC(=O)[C@H](C)NC(=O)[C@@H]1CSSC[C@H](NC(=O)[C@H](CCCCN)NC(=O)[C@@H](N)CCCCNC(=O)CC[C@H](NC(=O)CCCCCCCCCCCCCCCCC(=O)O)C(=O)O)C(=O)N[C@@H](CC(N)=O)C(=O)N[C@@H]([C@@H](C)O)C(=O)N[C@@H](C)C(=O)N[C@@H]([C@@H](C)O)C(=O)N1)[C@@H](C)O)C(=O)N[C@@H](CC(C)C)C(=O)N1CCC[C@H]1C(=O)N1CCC[C@H]1C(=O)N[C@H](C(=O)N[C@@H](CCC(=O)O)C(=O)N[C@H](C(=O)NCC(=O)N[C@@H](CO)C(=O)N[C@@H](CC(N)=O)C(=O)N[C@H](C(=O)N[C@@H](Cc1ccc(O)cc1)C(N)=O)[C@@H](C)O)C(C)C)[C@@H](C)O [Peptide 15, K(γE-C18diacid)K[CNTATC]ATQRLANFLRHSSNN(αMePhe)GPILPPTEVGSNTY-amide] (H-K([γGlu-C18 diacid])KCNTATCATQRLANFLRHSSNN[αMeF]GPILPPTEVGSNTY-NH2; disulfide 3-8; N-terminus assumed)
Cummulative food intake (% vehicle treated intake) At 12 h (lean rats; at 12 h): 45.2 % vehicle treated intake
Cummulative food intake (% vehicle treated intake) At 24 h (lean rats; at 24 h): 49.1 % vehicle treated intake
Cummulative food intake (% vehicle treated intake) At 48 h (lean rats; at 48 h): 51 % vehicle treated intake
